From patent US20220380319A1 (Bial - R&D Investments, S.A., priority 2019, published 2022)
≈ marks a conversion by molar mass, not a printed value.

Columns and labels:
[1] = target: T1, acid ceramidase (Homo sapiens, UniProt Q13510); assay: Acid ceramidase inhibition, biochemical fluorescent assay with cell lysates overexpressing acid ceramidase, substrate Rbm14-12; conditions: substrate Rbm14-12 6.3 μM, pH 4.5
T1 construct: Cell lysates overexpressing acid ceramidase were used as the enzyme source; expressed in transfected cells
T1 sequence (Q13510 22-395): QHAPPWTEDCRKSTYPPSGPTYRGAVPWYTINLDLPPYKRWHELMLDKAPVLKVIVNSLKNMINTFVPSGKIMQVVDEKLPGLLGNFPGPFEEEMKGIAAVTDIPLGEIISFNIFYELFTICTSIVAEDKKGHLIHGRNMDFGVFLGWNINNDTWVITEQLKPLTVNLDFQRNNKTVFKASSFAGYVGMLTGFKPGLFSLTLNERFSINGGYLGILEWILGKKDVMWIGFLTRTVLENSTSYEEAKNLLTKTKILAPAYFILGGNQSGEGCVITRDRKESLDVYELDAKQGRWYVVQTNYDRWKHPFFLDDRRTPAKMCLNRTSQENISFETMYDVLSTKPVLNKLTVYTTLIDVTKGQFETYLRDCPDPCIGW
In short: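 Lysate of cells overexpressing acid ceramidase (10 μg protein) preincubated with compound dose series 1 hr at RT in 25 mM NaAC, 100 mM NaCl, pH 4.5, then reacted 1 hr with 6.3 μM Rbm14-12. Stopped with NaIO4/glycine buffer pH 10.6, fluorescence ex360/em446; IC50 by four-parameter fit.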

[2] = Compound solubility in water

| SMILES | IC50 [1] [nM] | solubility [2] [µg/mL] |
| --- | --- | --- |
| COc1nc2ccc(N3CCOCC3)cc2n1C(=O)NCCCc1ccc(F)cc1F [Example 224a, N-(3-(2,4-Difluorophenyl)propyl)-2-methoxy-6-morpholino-1H-benzo[d]imidazole-1-carboxamide] | < 200 | 4 (≈ 9.29 µM) |
| COc1nc2cc(N3CCOCC3)ccc2n1C(=O)NCCCc1ccc(F)cc1F [Example 224b, N-(3-(2,4-difluorophenyl)propyl)-2-methoxy-5-morpholino-1H-benzo[d]-imidazole-1-carboxamide] | < 200 | 12 (≈ 27.9 µM) |
| CC(=O)N1CCN(c2cccc3c2ncn3C(=O)NCCCC(F)(F)F)CC1 [Example 225, 4-(4-Acetylpiperazin-1-yl)-N-(4,4,4-trifluorobutyl)-1H-benzo[d]imidazole-1-carboxamide] | < 200 | 8 (≈ 20.1 µM) |
| C[C@@H]1CN(c2cccc3c2ncn3C(=O)NCCCC(F)(F)F)C[C@H](C)O1 [Example 226, 4-((2R,6S)-2,6-dimethylmorpholino)-N-(4,4,4-trifluorobutyl)-1H-benzo[d]imidazole-1-carboxamide] | 200 to 1000 | 5 (≈ 13 µM) |
| CC(C)CC1(CNC(=O)n2cnc3c(N4CCOCC4)cccc32)CC1 [Example 227, N-((1-iso-Butylcyclopropyl)methyl)-4-morpholino-1H-benzo[d]imidazole-1-carboxamide] | < 200 | 16 (≈ 44.9 µM) |
| COc1nc2ccc(N3CCOCC3)cc2n1C(=O)NCCCc1ccco1 [Example 228a, N-(3-(Furan-2-yl)propyl)-2-methoxy-6-morpholino-1H-benzo[d]imidazole-1-carboxamide] | 200 to 1000 | 29 (≈ 75.4 µM) |
| COc1nc2cc(N3CCOCC3)ccc2n1C(=O)NCCCc1ccco1 [Example 228b, N-(3-(furan-2-yl)propyl)-2-methoxy-5-morpholino-1H-benzo[d]imidazole-1-carboxamide] | 200 to 1000 | 33 (≈ 85.8 µM) |
| COc1nc2ccc(N3CCOCC3)cc2n1C(=O)NCC1(CC2CC2)CC1 [Example 229a, N-((1-(Cyclopropylmethyl)cyclopropyl)-methyl)-2-methoxy-6-morpholino-1H-benzo[d]imidazole-1-carboxamide] | 200 to 1000 | 1 (≈ 2.6 µM) |
| COc1nc2cc(N3CCOCC3)ccc2n1C(=O)NCC1(CC2CC2)CC1 [Example 229b, N-((1-(cyclopropylmethyl)cyclopropyl)methyl)-2-methoxy-5-morpholino-1H-benzo[d]imidazole-1-carboxamide] | < 200 | 9 (≈ 23.4 µM) |
| COc1nc2ccc(N3CCOCC3)cc2n1C(=O)NCCC1CC1C(F)(F)F (centres unmarked) [Example 230a, 2-Methoxy-6-morpholino-N-(2-(2-(trifluoromethyl)cyclopropyl)ethyl)-1H-benzo[d]imidazole-1-carboxamide] | 200 to 1000 | 26 (≈ 63 µM) |
| COc1nc2cc(N3CCOCC3)ccc2n1C(=O)NCCC1CC1C(F)(F)F (centres unmarked) [Example 230b, 2-methoxy-5-morpholino-N-(2-(2-(trifluoromethyl)cyclopropyl)-ethyl)-1H-benzo[d]imidazole-1-carboxamide] | 200 to 1000 | 32 (≈ 77.6 µM) |
| COc1nc2ccc(N3CCOCC3)cc2n1C(=O)NCC1CC1Cc1ccccc1 (centres unmarked) [Example 231a, N-((2-benzylcyclopropyl)methyl)-2-methoxy-6-morpholino-1H-benzo[d]imidazole-1-carboxamide] | 200 to 1000 | 14 (≈ 33.3 µM) |
| COc1nc2cc(N3CCOCC3)ccc2n1C(=O)NCC1CC1Cc1ccccc1 (centres unmarked) [Example 231b, N-((2-benzylcyclopropyl)methyl)-2-methoxy-5-morpholino-1H-benzo[d]imidazole-1-carboxamide] | < 200 | 13 (≈ 30.9 µM) |
| COc1nc2ccc(N3CCOCC3)cc2n1C(=O)NCCCc1ccc(F)nc1 [Example 232a, N-(3-(6-Fluoropyridin-3-yl)propyl)-2-methoxy-6-morpholino-1H-benzo[d]imidazole-1-carboxamide] | > 1000 | 25 (≈ 60.5 µM) |
| COc1nc2cc(N3CCOCC3)ccc2n1C(=O)NCCCc1ccc(F)nc1 [Example 232b, N-(3-(6-fluoropyridin-3-yl)propyl)-2-methoxy-5-morpholino-1H-benzo[d]imidazole-1-carboxamide] | > 1000 | 25 (≈ 60.5 µM) |
| COc1nc2ccc(N3CCOCC3)cc2n1C(=O)NCCCOC(F)(F)F [Example 233a, 2-Methoxy-6-morpholino-N-(3-(trifluoromethoxy)propyl)-1H-benzo[d]imidazole-1-carboxamide] | 200 to 1000 | 30 (≈ 74.6 µM) |
| COc1nc2cc(N3CCOCC3)ccc2n1C(=O)NCCCOC(F)(F)F [Example 233b, 2-methoxy-5-morpholino-N-(3-(trifluoromethoxy)propyl)-1H-benzo[d]imidazole-1-carboxamide] | 200 to 1000 | 29 (≈ 72.1 µM) |
| CC(C)C(=O)N1CCN(c2cccc3c2ncn3C(=O)NCCCC2(C(F)(F)F)CC2)CC1 [Example 234, 4-(4-iso-Butyrylpiperazin-1-yl)-N-(3-(1-(trifluoromethyl)cyclopropyl)propyl)-1H-benzo[d]imidazole-1-carboxamide] | < 200 | 1 (≈ 2.15 µM) |
| CC(=O)N1CCN(c2cccc3c2ncn3C(=O)NCCCC2(C(F)(F)F)CC2)CC1 [Example 235, 4-(4-Acetylpiperazin-1-yl)-N-(3-(1-(trifluoromethyl)cyclopropyl)propyl)-1H-benzo[d]imidazole-1-carboxamide] | < 200 | 20 (≈ 45.7 µM) |
| COc1nc2cc(N3CCN(C(C)=O)CC3)ccc2n1C(=O)NCCCc1ccccc1 [Example 236a, 5-(4-Acetylpiperazin-1-yl)-2-methoxy-N-(3-phenylpropyl)-1H-benzo[d]imidazole-1-carboxamide] | < 200 | 18 (≈ 41.3 µM) |
| COc1nc2ccc(N3CCN(C(C)=O)CC3)cc2n1C(=O)NCCCc1ccccc1 [Example 236b, 6-(4-acetylpiperazin-1-yl)-2-methoxy-N-(3-phenylpropyl)-1H-benzo[d]imidazole-1-carboxamide] | < 200 | 23 (≈ 52.8 µM) |
| COc1nc2cc(N3[C@@H]4CC[C@H]3COC4)ccc2n1C(=O)NCCCc1ccccc1 [Example 237a, 5-((1R,5S)-3-Oxa-8-azabicyclo[3.2.1]octan-8-yl)-2-methoxy-N-(3-phenylpropyl)-1H-benzo[d]imidazole-1-carboxamide] | < 200 | 1 (≈ 2.38 µM) |
| COc1nc2ccc(N3[C@@H]4CC[C@H]3COC4)cc2n1C(=O)NCCCc1ccccc1 [Example 237b, 6-((1R,5S)-3-oxa-8-azabicyclo[3.2.1]octan-8-yl)-2-methoxy-N-(3-phenylpropyl)-1H-benzo[d]imidazole-1-carboxamide] | < 200 | 5 (≈ 11.9 µM) |
| COc1nc2ccc(N3CCC4(CC3)COC4)cc2n1C(=O)NCCCc1ccccc1 [Example 238a, 2-Methoxy-N-(3-phenylpropyl)-6-(2-oxa-7-azaspiro[3,5]nonan-7-yl)-1H-benzo[d]imidazole-1-carboxamide] | < 200 | 11 (≈ 25.3 µM) |
| COc1nc2cc(N3CCC4(CC3)COC4)ccc2n1C(=O)NCCCc1ccccc1 [Example 238b, 2-methoxy-N-(3-phenylpropyl)-5-(2-oxa-7-azaspiro[3.5]nonan-7-yl)-1H-benzo[d]-imidazole-1-carboxamide] | 200 to 1000 | 12 (≈ 27.6 µM) |
